Earlier results in US20060019940A1, “Novel benzoxazocines and their therapeutic use” (priority 2002, published 2006).

How the values were obtained:
[1] = order of potency (+)-nefopam>(±)-nefopam>(−)-nefopam
[2] = system: synaptosomal uptake of dopamine, norepinephrine and serotonin; settings: order of potency (+)-nefopam>(±)-nefopam>(−)-nefopam

SMILES: CN1CCO[C@@H](c2ccccc2)c2ccccc2C1 [(+)-nefopam]
- analgesic properties compared with (−)-nefopam [1]: more potent
- dopamine, norepinephrine and serotonin uptake inhibitory properties compared with (−)-nefopam [2]: more potent
